Marks after values point to notes of the source that are not given here.
System: intragastric pH
Assay: 24-h intragastric pH monitoring after single intravenous dexlansoprazole in healthy Chinese subjects
Format: in vivo, human
Settings: 30 mg iv
Description: Dexlansoprazole injection (30 mg per vial) used in the PK and PD study was manufactured by Nanjing Yoko Pharma Co., Ltd. (Nanjing, China). Subjects received an intravenous infusion of 20 or 30 mg dexlansoprazole injection in sterile saline solution (100 mL/h, 60 min). The study drug was administrated with an infusing pump (SA213, Lifepum, Beijing, China) and given through an intravenous catheter in the antecubital vein opposite to the one from which blood samples were taken.
An ambulatory pH recorder (Orion II, MMS, USA) with a disposable pH catheter (VersaFlex, MMS, USA) was used to monitor intragastric pH. The electrode was placed in water for at least 10 min and then calibrated using standard buffer solutions (pH 1.07 and 7.01) before intubation. Both calibration and intubation processes were conducted under the guidance of MMS Virtual Instructor Program. The catheter, trans nasally placed 10 cm under the lower esophageal sphincter, was identified by a sharp decrease in pH (Wang et al., [2010], [2011]). Subjects were intubated on baseline and the day of dosing at about 7:30 a.m., and the intragastric pH data were recorded continuously for 24 h from 8:00 a.m. Intragastric pH was sampled every second, and the data were stored in a MMS Database program (MMS, USA). The PD parameters including Median (pH), Mean (pH), TpH≥3 (%), TpH≥4 (%), TpH≥6 (%), TpH≥6, and AUC^pH−t were analyzed by the MMS Database program.
Median (pH) and mean (pH) were well-investigated in most studies, and the percentage time of pH ≥ 4 (or pH ≥ 4 holding time ratio) was the benchmark for predicting clinical efficacy of PPIs in treating acid-related diseases (Metz et al., [2009]). Novel parameter TpH≥6 (time to first gastric pH ≥ 6, min) and AUCτ 1-τ 2pH-t (area under pH-time curve from τ1 to τ2, pH·s) were defined to evaluate the velocity and extent of pharmacodynamics with more accuracy. All parameters were calculated and compared according to time periods of 0–24, 0–4, 4–10, 10–14, and 14–24 h post dosing.
The parameter AUCτ 1-τ 2pH-t was calculated as follows:
Where t represented the time duration measured by seconds, AUCτ 1-τ 210-t was the area between the pH line = 10 and the pH-time curve, which was generated by the MMS software.
Baseline-adjusted PD parameters were calculated as follows: for example, ΔAUC^pH−t = AUC^pH−t − AUC^pH−tbaseline, ΔMean (pH) = Mean (pH) − Mean (pH)^baseline, and ΔMedian (pH) = Median (pH) − Median (pH)^baseline.

[1] = CYP2C19 EMs, H+/K+-ATPase WT (n = 6), 0–4 h
[2] = CYP2C19 EMs, H+/K+-ATPase WT (n = 6), 0–24 h
[3] = CYP2C19 EMs, H+/K+-ATPase WT (n = 6), 14–24 h
[4] = H+/K+-ATPase Het (n = 10), 0–4 h

Cc1c(OCC(F)(F)F)ccnc1C[S@@+]([O-])c1nc2ccccc2[nH]1 [dexlansoprazole]
Mean (pH) [1]: 6.1 ± 0.5 pH
Median (pH) [1]: 6.9 ± 0.5 pH
TpH≥3(%) [1]: 80.8 ± 8.4%
TpH≥4(%) [1]: 76.4 ± 9.4%
TpH≥6(%) [1]: 66.9 ± 14.8%
ΔMean (pH) [1]: 3.4 ± 0.7 pH
ΔMedian (pH) [1]: 4.5 ± 0.7^b pH
ΔTpH≥3(%) [1]: 51.7 ± 34.6%
ΔTpH≥4 (%) [1]: 58.6 ± 15.0%
ΔTpH≥6(%) [1]: 60.9 ± 12.6%
Mean (pH) [2]: 5.6 ± 1.1 pH
Median (pH) [2]: 5.8 ± 1.4 pH
TpH≥3(%) [2]: 79.8 ± 16.2%
TpH≥4(%) [2]: 73.1 ± 20.0%
TpH≥6(%) [2]: 53.5 ± 23.6%
ΔMean (pH) [2]: 2.4 ± 0.8^c pH
ΔMedian (pH) [2]: 3.2 ± 1.0 pH
ΔTpH≥3(%) [2]: 35.3 ± 10.3^c %
ΔTpH≥4 (%) [2]: 41.0 ± 16.6^c %
ΔTpH≥6(%) [2]: 43.2 ± 18.2%
Mean (pH) [3]: 4.8 ± 1.8 pH
Median (pH) [3]: 4.3 ± 1.7 pH
TpH≥3(%) [3]: 62.4 ± 35.6%
TpH≥4(%) [3]: 52.1 ± 41.3%
TpH≥6(%) [3]: 34.4 ± 28.0%
ΔMean (pH) [3]: 1.6 ± 0.9^c pH
ΔMedian (pH) [3]: 2.3 ± 1.7 pH
ΔTpH≥3(%) [3]: 38.5 ± 26.5^c %
ΔTpH≥4 (%) [3]: 29.5 ± 29.9%
ΔTpH≥6(%) [3]: 14.1 ± 12.6^c %
Mean (pH) (CYP2C19 IM (n = 10), 0–4 h): 5.6 ± 2.2 pH
Median (pH) (CYP2C19 IM (n = 10), 0–4 h): 6.2 ± 2.8 pH
TpH≥3(%) (CYP2C19 IM (n = 10), 0–4 h): 66.9 ± 33.4%
TpH≥4(%) (CYP2C19 IM (n = 10), 0–4 h): 63.6 ± 36.2%
TpH≥6(%) (CYP2C19 IM (n = 10), 0–4 h): 56.6 ± 36.6%
ΔMean (pH) (CYP2C19 IM (n = 10), 0–4 h): 3.3 ± 1.7 pH
ΔMedian (pH) (CYP2C19 IM (n = 10), 0–4 h): 4.3 ± 2.5 pH
ΔTpH≥3(%) (CYP2C19 IM (n = 10), 0–4 h): 56.9 ± 27.1%
ΔTpH≥4 (%) (CYP2C19 IM (n = 10), 0–4 h): 56.2 ± 31.5%
ΔTpH≥6(%) (CYP2C19 IM (n = 10), 0–4 h): 51.3 ± 33.5%
Mean (pH) (CYP2C19 IM (n = 10), 0–24 h): 6.6 ± 0.9 pH
Median (pH) (CYP2C19 IM (n = 10), 0–24 h): 7.0 ± 0.8 pH
TpH≥3(%) (CYP2C19 IM (n = 10), 0–24 h): 89.6 ± 9.2%
TpH≥4(%) (CYP2C19 IM (n = 10), 0–24 h): 85.7 ± 10.6%
TpH≥6(%) (CYP2C19 IM (n = 10), 0–24 h): 67.8 ± 13.4%
ΔMean (pH) (CYP2C19 IM (n = 10), 0–24 h): 3.7 ± 0.6 pH
ΔMedian (pH) (CYP2C19 IM (n = 10), 0–24 h): 4.9 ± 0.8 pH
ΔTpH≥3(%) (CYP2C19 IM (n = 10), 0–24 h): 65.3 ± 6.2%
ΔTpH≥4 (%) (CYP2C19 IM (n = 10), 0–24 h): 70.0 ± 8.3%
ΔTpH≥6(%) (CYP2C19 IM (n = 10), 0–24 h): 56.7 ± 6.4%
Mean (pH) (CYP2C19 IM (n = 10), 14–24 h): 6.1 ± 0.9 pH
Median (pH) (CYP2C19 IM (n = 10), 14–24 h): 6.2 ± 1.2 pH
TpH≥3(%) (CYP2C19 IM (n = 10), 14–24 h): 88.9 ± 8.9%
TpH≥4(%) (CYP2C19 IM (n = 10), 14–24 h): 80.9 ± 12.6%
TpH≥6(%) (CYP2C19 IM (n = 10), 14–24 h): 50.7 ± 13.6%
ΔMean (pH) (CYP2C19 IM (n = 10), 14–24 h): 2.7 ± 0.9 pH
ΔMedian (pH) (CYP2C19 IM (n = 10), 14–24 h): 3.7 ± 0.9 pH
ΔTpH≥3(%) (CYP2C19 IM (n = 10), 14–24 h): 60.8 ± 19.5%
ΔTpH≥4 (%) (CYP2C19 IM (n = 10), 14–24 h): 55.6 ± 17.3%
ΔTpH≥6(%) (CYP2C19 IM (n = 10), 14–24 h): 27.8 ± 14.7^c %
Mean (pH) (CYP2C19 PM (n = 7), 0–4 h): 5.2 ± 1.1 pH
Median (pH) (CYP2C19 PM (n = 7), 0–4 h): 5.9 ± 1.8 pH
TpH≥3(%) (CYP2C19 PM (n = 7), 0–4 h): 73.7 ± 10.5%
TpH≥4(%) (CYP2C19 PM (n = 7), 0–4 h): 64.8 ± 15.2%
TpH≥6(%) (CYP2C19 PM (n = 7), 0–4 h): 47.7 ± 24.1%
ΔMean (pH) (CYP2C19 PM (n = 7), 0–4 h): 3.5 ± 0.9 pH
ΔMedian (pH) (CYP2C19 PM (n = 7), 0–4 h): 4.2 ± 1.8 pH
ΔTpH≥3(%) (CYP2C19 PM (n = 7), 0–4 h): 69.8 ± 9.5%
ΔTpH≥4 (%) (CYP2C19 PM (n = 7), 0–4 h): 63.2 ± 13.7%
ΔTpH≥6(%) (CYP2C19 PM (n = 7), 0–4 h): 47.3 ± 23.7%
Mean (pH) (CYP2C19 PM (n = 7), 0–24 h): 6.5 ± 1.1 pH
Median (pH) (CYP2C19 PM (n = 7), 0–24 h): 6.7 ± 1.2 pH
TpH≥3(%) (CYP2C19 PM (n = 7), 0–24 h): 89.0 ± 13.3%
TpH≥4(%) (CYP2C19 PM (n = 7), 0–24 h): 85.0 ± 16.4%
TpH≥6(%) (CYP2C19 PM (n = 7), 0–24 h): 72.2 ± 19.8%
ΔMean (pH) (CYP2C19 PM (n = 7), 0–24 h): 4.1 ± 1.1^a pH
ΔMedian (pH) (CYP2C19 PM (n = 7), 0–24 h): 4.8 ± 1.2 pH
ΔTpH≥3(%) (CYP2C19 PM (n = 7), 0–24 h): 68.6 ± 15.3^a %
ΔTpH≥4 (%) (CYP2C19 PM (n = 7), 0–24 h): 74.6 ± 16.6^a %
ΔTpH≥6(%) (CYP2C19 PM (n = 7), 0–24 h): 68.8 ± 17.9^a %
Mean (pH) (CYP2C19 PM (n = 7), 14–24 h): 6.1 ± 1.4 pH
Median (pH) (CYP2C19 PM (n = 7), 14–24 h): 5.9 ± 2.0 pH
TpH≥3(%) (CYP2C19 PM (n = 7), 14–24 h): 87.3 ± 22.7%
TpH≥4(%) (CYP2C19 PM (n = 7), 14–24 h): 82.9 ± 26.0%
TpH≥6(%) (CYP2C19 PM (n = 7), 14–24 h): 64.4 ± 25.6^a %
ΔMean (pH) (CYP2C19 PM (n = 7), 14–24 h): 3.8 ± 1.3^a pH
ΔMedian (pH) (CYP2C19 PM (n = 7), 14–24 h): 4.1 ± 1.9^a pH
ΔTpH≥3(%) (CYP2C19 PM (n = 7), 14–24 h): 76.9 ± 20.0^a %
ΔTpH≥4 (%) (CYP2C19 PM (n = 7), 14–24 h): 75.9 ± 22.4^a %
ΔTpH≥6(%) (CYP2C19 PM (n = 7), 14–24 h): 59.0 ± 24.6^a^,^b %
Mean (pH) [4]: 5.3 ± 2.0 pH
Median (pH) [4]: 5.5 ± 2.5 pH
TpH≥3(%) [4]: 70.6 ± 25.1%
TpH≥4(%) [4]: 64.8 ± 28.6%
TpH≥6(%) [4]: 50.5 ± 38.4%
ΔMean (pH) [4]: 3.0 ± 1.2 pH

— PMC5614982, “Impact of Gastric H^+/K^+-ATPase rs2733743 on the Intragastric pH-Values of Dexlansoprazole Injection in Chinese Subjects” (Frontiers in Pharmacology, 2017)
